# Values quoted from earlier work as cited in patent US12336975B2, “Composition and methods for treatment or prophylaxis of coronavirus and cancers” ([…], priority 2020, dated 2025).
# Tested on: COVID-19
# Conditions: preventive and treatment approach for COVID-19
compound,measurement,value
CCN(CCO)CCCC(C)Nc1ccnc2cc(Cl)ccc12 (centres unmarked) [hydroxychloroquine],efficacy against COVID-19,no effective results
same,reported side effect rate,40.1%
